Laboratory results: patent US11110103B2, “Inhibitors of glucocorticoid receptor” (ORIC Pharmaceuticals, Inc., priority 2015, dated 2021)

target: T1, GR (Homo sapiens, UniProt P04150); assay: In Vitro GR Luciferase Reporter Assay (antagonist assay); assay type: cell-based; conditions: CHO-K1-GR-MMTV-Luc reporter cells, 10 nM Dexamethasone, 18-24 hours
T1 construct: expressed in transfected cells; host or cells: CHO-K1 (CHO-K1-GR-MMTV-Luc reporter cells)
T1 sequence (P04150 1-777): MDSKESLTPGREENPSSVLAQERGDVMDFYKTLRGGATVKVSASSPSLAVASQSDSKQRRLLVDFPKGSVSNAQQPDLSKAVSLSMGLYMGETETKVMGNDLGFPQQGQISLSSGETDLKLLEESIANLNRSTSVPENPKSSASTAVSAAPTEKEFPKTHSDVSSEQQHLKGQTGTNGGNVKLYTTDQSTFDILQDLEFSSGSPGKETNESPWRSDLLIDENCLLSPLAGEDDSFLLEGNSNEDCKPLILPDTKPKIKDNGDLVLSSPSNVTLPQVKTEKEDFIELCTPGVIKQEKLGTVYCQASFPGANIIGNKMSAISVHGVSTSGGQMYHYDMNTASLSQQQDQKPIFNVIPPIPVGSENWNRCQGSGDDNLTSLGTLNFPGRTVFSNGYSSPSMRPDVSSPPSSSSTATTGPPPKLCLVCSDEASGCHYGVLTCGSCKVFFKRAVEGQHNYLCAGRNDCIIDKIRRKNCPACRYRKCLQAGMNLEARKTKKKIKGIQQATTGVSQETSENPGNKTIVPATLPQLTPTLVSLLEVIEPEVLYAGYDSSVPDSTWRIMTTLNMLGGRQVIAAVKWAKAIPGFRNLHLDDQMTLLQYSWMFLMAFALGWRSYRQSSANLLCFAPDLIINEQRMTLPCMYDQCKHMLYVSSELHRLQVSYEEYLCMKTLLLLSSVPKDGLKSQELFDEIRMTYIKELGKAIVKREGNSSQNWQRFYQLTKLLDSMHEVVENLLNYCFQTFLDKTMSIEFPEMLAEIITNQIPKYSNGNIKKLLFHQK
Experimental: Cell Line: CHO-K1-GR-MMTV-Luc reporter cells
Culture Media: DMEM (with phenol red)+10% FBS
Assay Media: DMEM (without phenol red)+10% CSS
Culture CHO-K1-GR-MMTV-Luc reporter cells in 15 cm plates in Culture Media at conditions less than 90% confluence.
Prepare 200×DMSO 1:5 serial dilutions of control and test compounds in 96-well non-sterile V bottom plate in DMSO, 8 serial dilutions for each compound.
Add compounds: 5 ul of assay media diluted compounds were added to appropriate wells and followed a quick spin (1000 rpm, 10 sec) to bring media and cells to the bottom of plate. The plates were covered with SealMate film to avoid evaporation and placed in 37° C. incubator for approximately 18-24 hours.
Read plates: Equilibrate appropriate amount of Promega OneGlo luciferase reagent to room temperature. Remove the plates from incubator and add 25 uL of OneGlo reagent/well by multiple channel pipette and read the plates with Tecan F500 luminometer within 3 minutes.
The ability of the compounds disclosed herein to inhibit GR activity was quantified and the respective IC50 value was determined.

Row | SMILES | IC50
1 | CC#C[C@]1(O)CC[C@H]2[C@@H]3CCC4=CC(=O)CCC4=C3[C@@H](c3ccc(Cl)c(C(C)C)c3)C[C@@]21C [drawing 200] | < 0.1 µM
2 | CC#C[C@]1(O)CC[C@H]2[C@@H]3CCC4=CC(=O)CCC4=C3[C@@H](c3ccc(C(C)C)c(N(C)C)c3)C[C@@]21C [drawing 201] | < 0.1 µM
3 | CC#C[C@]1(O)CC[C@H]2[C@@H]3CCC4=CC(=O)CCC4=C3[C@@H](c3ccc(N(C)C)c(C(C)C)c3)C[C@@]21C [drawing 203] | > 0.1 µM
4 | CC#C[C@]1(O)CC[C@H]2[C@@H]3CCC4=CC(=O)CCC4=C3[C@@H](c3ccc(Cl)c(OC)c3)C[C@@]21C [drawing 204] | > 0.1 µM
5 | CC#C[C@]1(O)CC[C@H]2[C@@H]3CCC4=CC(=O)CCC4=C3[C@@H](c3cc(F)c(C)c(F)c3)C[C@@]21C [drawing 209] | < 0.1 µM
6 | CC#C[C@]1(O)CC[C@H]2[C@@H]3CCC4=CC(=O)CCC4=C3[C@@H](c3ccc4c(c3)OCCO4)C[C@@]21C [drawing 210] | < 0.1 µM
7 | CC#C[C@]1(O)[C@H](CC)C[C@H]2[C@@H]3CCC4=CC(=O)CCC4=C3[C@@H](c3ccc(N(C)C)cc3)C[C@@]21C [drawing 225] | < 0.1 µM
8 | CC#C[C@]1(O)[C@H](C)C[C@H]2[C@@H]3CCC4=CC(=O)CCC4=C3[C@@H](c3ccc(S(=O)(=O)N4CCCCC4)cc3)C[C@@]21C [drawing 226] | < 0.1 µM
9 | CC#C[C@]1(O)[C@H](C)C[C@H]2[C@@H]3CCC4=CC(=O)CCC4=C3[C@@H](c3ccc(N4CCOC[C@H]4C)cc3)C[C@@]21C [drawing 227] | < 0.1 µM

tested on: AR; assay: In Vitro AR Agonism Assay (LNAR reporter cell line); assay type: cell-based; conditions: LNAR cells, RPMI + 10% CSS, 18-24 hrs; maximum response of Mifepristone set to 1
Experimental: Example 6: In Vitro AR Agonism Assay
The AR agonism assay was done in the LNAR reporter cell line which has overexpressed AR and 4XARE-Luc genes. This cell line is sensitive to even minor partial AR agonism activity in hormone-deprived media (CSS). The assays were done in RPMI (without phenol red)+10% CSS using 6000 LNAR cells/well in 384-well plates and compounds were incubated with cells in […] incubator for 18-24 hrs. OneGlo reagent (25 uL/well) was added and plates were read with luminometer within 3 minutes.
To gauge the AR partial agonism activity, Mifepristone is included as a standard in the assay. AR agonism assay results are quantified by determining the ratio of the maximum response of individual compounds to the maximum response of Mifepristone (arbitrarily set to 1). Values of Table 3 are reported as Relative Maximum Response to Mifepristone. This general trend of AR agonism was shown for the class of compounds described herein.

Row | SMILES | Relative Maximum Response to Mifepristone
10 | CC#C[C@]1(O)CC[C@H]2[C@@H]3CCC4=CC(=O)CCC4=C3[C@@H](c3ccc(S(=O)(=O)N4CCCCC4)cc3)C[C@@]21C [drawing 241] | A (A: ≤0.4)
11 | CC#C[C@]1(O)CC[C@H]2[C@@H]3CCC4=CC(=O)CCC4=C3[C@@H](c3ccc(S(=O)(=O)C(C)(C)C)cc3)C[C@@]21C [drawing 242] | A (A: ≤0.4)
12 | CC#C[C@]1(O)CC[C@H]2[C@@H]3CCC4=CC(=O)CCC4=C3[C@@H](c3cccc(C(C)C)c3)C[C@@]21C [drawing 243] | A (A: ≤0.4)
13 | CC#C[C@]1(O)CC[C@H]2[C@@H]3CCC4=CC(=O)CCC4=C3[C@@H](c3cccc(OCC)c3)C[C@@]21C [drawing 244] | A (A: ≤0.4)
14 | CC#C[C@]1(O)CC[C@H]2[C@@H]3CCC4=CC(=O)CCC4=C3[C@@H](c3ccc(C)c(C)c3)C[C@@]21C [drawing 245] | A (A: ≤0.4)
15 | CC#C[C@]1(O)CC[C@H]2[C@@H]3CCC4=CC(=O)CCC4=C3[C@@H](c3cc(F)cc(F)c3)C[C@@]21C [drawing 246] | A (A: ≤0.4)
16 | CC#C[C@]1(O)CC[C@H]2[C@@H]3CCC4=CC(=O)CCC4=C3[C@@H](c3ccc(F)c(C#N)c3)C[C@@]21C [drawing 247] | B (B: >0.4)
17 | CC#C[C@]1(O)CC[C@H]2[C@@H]3CCC4=CC(=O)CCC4=C3[C@@H](c3ccc(Cl)c(C(C)C)c3)C[C@@]21C [drawing 248] | A (A: ≤0.4)
18 | CC#C[C@]1(O)CC[C@H]2[C@@H]3CCC4=CC(=O)CCC4=C3[C@@H](c3ccc(C(C)C)c(N(C)C)c3)C[C@@]21C [drawing 249] | A (A: ≤0.4)
19 | CC#C[C@]1(O)CC[C@H]2[C@@H]3CCC4=CC(=O)CCC4=C3[C@@H](c3ccc(N(C)C)c(C(C)C)c3)C[C@@]21C [drawing 250] | A (A: ≤0.4)
20 | CC#C[C@]1(O)CC[C@H]2[C@@H]3CCC4=CC(=O)CCC4=C3[C@@H](c3ccc(Cl)c(OC)c3)C[C@@]21C [drawing 251] | A (A: ≤0.4)
21 | CC#C[C@]1(O)CC[C@H]2[C@@H]3CCC4=CC(=O)CCC4=C3[C@@H](c3cc(F)c(C)c(F)c3)C[C@@]21C [drawing 252] | A (A: ≤0.4)
22 | CC#C[C@]1(O)CC[C@H]2[C@@H]3CCC4=CC(=O)CCC4=C3[C@@H](c3ccc4c(c3)OCCO4)C[C@@]21C [drawing 253] | A (A: ≤0.4)
23 | CC#C[C@]1(O)[C@H](CC)C[C@H]2[C@@H]3CCC4=CC(=O)CCC4=C3[C@@H](c3ccc(N(C)C)cc3)C[C@@]21C [drawing 254] | A (A: ≤0.4)
24 | CC#C[C@]1(O)[C@H](C)C[C@H]2[C@@H]3CCC4=CC(=O)CCC4=C3[C@@H](c3ccc(S(=O)(=O)N4CCCCC4)cc3)C[C@@]21C [drawing 255] | A (A: ≤0.4)
25 | CC#C[C@]1(O)[C@H](C)C[C@H]2[C@@H]3CCC4=CC(=O)CCC4=C3[C@@H](c3ccc(N4CCOC[C@H]4C)cc3)C[C@@]21C [drawing 256] | B (B: >0.4)

same assay, conditions: in concentrations as low as 10 nM

Row | SMILES | AR partial agonism
26 | CC#C[C@]1(O)CC[C@H]2[C@@H]3CCC4=CC(=O)CCC4=C3[C@@H](c3ccc(N(C)C)cc3)C[C@@]21C [Mifepristone, reference compound] | strong partial AR agonism
